# According to paper PMC11799997 (ACS Omega, 2025):
# Tests used:
# [1] = tested on: renal brush border enzymes (RBBMVs); assay: Enzyme inhibition study of RBBMV-mediated cleavage of the GFK linkage; assay type: biochemical, rat; details: 1 mM inhibitor; for inhibition of release of [64Cu]Cu-cyclam-G from [64Cu]Cu-cyclam-GFK(Bz) / inhibition of release of radiometabolite-X from [64Cu]Cu-cyclam-GFK(Bz): RBBMVs 10 mg/mL, 37 °C, 5 or 24 h, TLC; for inhibition of release of [64Cu]Cu-cyclam-G from [64Cu]Cu-cyclam-GFK(Bz) (pilot): RBBMVs 3 mg/mL, 37 °C overnight, RP-HPLC
# [2] = Whole-body dynamic PET in normal mice; details: for renal radioactivity level (RRL) / RRL relative to [64Cu]Cu-cyclam-RaftRGD: 57.5 min p.i.; for renal radioactivity level (RRL) / radioactivity in the bladder: 2.92–4.26 MBq/0.3 nmol i.v.; for radioactivity in the bladder: by 1 h p.i.
# [3] = Urinary radiometabolite assay in normal mice; assay type: in vivo, mouse; details: for urinary radioactivity with tR consistent with [64Cu]Cu-cyclam-G: pilot, 13.3 MBq/12.4 nmol i.v., RP-HPLC
# [4] = Pilot dynamic PET imaging of [64Cu]Cu-cyclam-G in normal mice
# [5] = tested on: U87MG tumor-bearing mice; assay: PET imaging of U87MG tumor-bearing mice; assay type: in vivo, mouse; details: for rate of reduction in renal radioactivity level (PET): from 1 to 24 h p.i.
# [6] = tested on: renal brush border membrane vesicles (RBBMVs); assay: Enzyme-mediated cleavage assay with RBBMVs; assay type: in vitro ADME, rat; details: 10 mg/mL RBBMVs, 37 °C, TLC; for release of [64Cu]Cu-cyclam-G upon incubation with RBBMVs: 10 min–24 h; for release of radiometabolite-X (% of the radioactivity): 24 h
# [7] = Ex vivo biodistribution study in normal mice; set-up: species or system mouse; details: 3 to 24 h p.i.
compound,measurement,setting,value
C[C@H](CS)C(=O)N1CCC[C@H]1C(=O)O [captopril],inhibition of release of [64Cu]Cu-cyclam-G from [64Cu]Cu-cyclam-GFK(Bz),[1],partially inhibited
same,inhibition of release of radiometabolite-X from [64Cu]Cu-cyclam-GFK(Bz),[1],partially inhibited
CC1(C)C[C@@H]1C(=O)N/C(=C\CCCCSC[C@H](N)C(=O)O)C(=O)O [cilastatin],inhibition of release of [64Cu]Cu-cyclam-G from [64Cu]Cu-cyclam-GFK(Bz) (pilot),[1],remained unaffected
same,inhibition of release of [64Cu]Cu-cyclam-G from [64Cu]Cu-cyclam-GFK(Bz),[1],not inhibited
same,inhibition of release of radiometabolite-X from [64Cu]Cu-cyclam-GFK(Bz),[1],not inhibited
[^64Cu]Cu-cyclam-Gly-OH,renal radioactivity level (RRL),[2],1.14 ± 0.15 %ID/g
same,radioactivity in the bladder,[2],> 70 %ID
same,0–6 h urinary radioactivity levels,"[3]; normal mice, 7.4 MBq i.v., group values",34.7 to 50.9 %ID
same,reduction of renal uptake from peak,[4]; 1.5 to 57.5 min p.i.,96.7%
same,renal uptake peak,"[4]; 1.5 min p.i., ~7.4 MBq/2 nmol i.v.",20.3 ± 2.9 %ID/g
same,renal uptake,"[4]; 57.5 min p.i., ~7.4 MBq/2 nmol i.v.",0.68 ± 0.02 %ID/g
same,ID excreted in urine,[4]; within 60 min after injection,more than 70 % of ID
"C[C@@H]1NC(=O)[C@H](CCCCNC(=O)CO/N=C/C(=O)NCCCC[C@@H]2NC(=O)[C@@H](Cc3ccccc3)NC(=O)[C@H](CC(=O)O)NC(=O)CNC(=O)[C@H](CCCNC(=N)N)NC2=O)NC(=O)CNC(=O)[C@@H]2CCCN2C(=O)[C@H](CCCCNC(=O)CO/N=C/C(=O)NCCCC[C@@H]2NC(=O)[C@@H](Cc3ccccc3)NC(=O)[C@H](CC(=O)O)NC(=O)CNC(=O)[C@H](CCCNC(=N)N)NC2=O)NC(=O)[C@H](CCCCNC(=O)[C@H](CCCCN)NC(=O)[C@H](Cc2ccccc2)NC(=O)CNC(=O)CN2CCCNCCNCCCNCC2)NC(=O)[C@H](CCCCNC(=O)CO/N=C/C(=O)NCCCC[C@@H]2NC(=O)[C@@H](Cc3ccccc3)NC(=O)[C@H](CC(=O)O)NC(=O)CNC(=O)[C@H](CCCNC(=N)N)NC2=O)NC(=O)CNC(=O)[C@@H]2CCCN2C(=O)[C@H](CCCCNC(=O)CO/N=C/C(=O)NCCCC[C@@H]2NC(=O)[C@@H](Cc3ccccc3)NC(=O)[C@H](CC(=O)O)NC(=O)CNC(=O)[C@H](CCCNC(=N)N)NC2=O)NC1=O [[^64Cu]Cu-cyclam-GFK-RaftRGD, metal not drawn]",rate of reduction in renal radioactivity level (PET),[5],73.0 ± 2.3%
same,release of [64Cu]Cu-cyclam-G upon incubation with RBBMVs,[6],failed to release
same,release of radiometabolite-X (% of the radioactivity),[6],18.2%
same,RRL relative to [64Cu]Cu-cyclam-RaftRGD,[2],2.98 fold
same,urine radioactivity fraction as intact compound,"[3]; urine 0–6 h p.i., TLC",27.7 ± 2.4%
same,urine radioactivity fraction as radiometabolite-X ([64Cu]Cu-cyclam-GF),"[3]; urine 0–6 h p.i., TLC",56.9 ± 2.0%
same,reduction of kidney radioactivity level,[7],61.1%
same,reduction of liver radioactivity level,[7],28.0%
[^64Cu]Cu-cyclam-Gly-Phe-OH [[^64Cu]Cu-cyclam-GF],renal radioactivity level (RRL),[2],1.50 ± 0.81 %ID/g
same,radioactivity in the bladder,[2],> 70 %ID
"C[C@@H]1NC(=O)[C@H](CCCCNC(=O)CO/N=C/C(=O)NCCCC[C@@H]2NC(=O)[C@@H](Cc3ccccc3)NC(=O)[C@H](CC(=O)O)NC(=O)CNC(=O)[C@H](CCCNC(=N)N)NC2=O)NC(=O)CNC(=O)[C@@H]2CCCN2C(=O)[C@H](CCCCNC(=O)CO/N=C/C(=O)NCCCC[C@@H]2NC(=O)[C@@H](Cc3ccccc3)NC(=O)[C@H](CC(=O)O)NC(=O)CNC(=O)[C@H](CCCNC(=N)N)NC2=O)NC(=O)[C@H](CCCCNC(=O)CCNC(=O)CCNC(=O)CCNC(=O)[C@H](CCCCN)NC(=O)[C@H](Cc2ccccc2)NC(=O)CNC(=O)CN2CCCNCCNCCCNCC2)NC(=O)[C@H](CCCCNC(=O)CO/N=C/C(=O)NCCCC[C@@H]2NC(=O)[C@@H](Cc3ccccc3)NC(=O)[C@H](CC(=O)O)NC(=O)CNC(=O)[C@H](CCCNC(=N)N)NC2=O)NC(=O)CNC(=O)[C@@H]2CCCN2C(=O)[C@H](CCCCNC(=O)CO/N=C/C(=O)NCCCC[C@@H]2NC(=O)[C@@H](Cc3ccccc3)NC(=O)[C@H](CC(=O)O)NC(=O)CNC(=O)[C@H](CCCNC(=N)N)NC2=O)NC1=O [[^64Cu]Cu-cyclam-GFK(βA)3-RaftRGD, metal not drawn]",tumor uptake (PET),"[5]; U87MG tumor, 1–24 h p.i.",significantly higher than those of the GFK compound
same,rate of reduction in renal radioactivity level (PET),[5],75.6 ± 1.8%
same,release of [64Cu]Cu-cyclam-G upon incubation with RBBMVs,[6],failed to release
same,release of radiometabolite-X (% of the radioactivity),[6],22.9%
same,RRL relative to [64Cu]Cu-cyclam-RaftRGD,[2],2.57 fold
same,urine radioactivity fraction as intact compound,"[3]; urine 0–6 h p.i., TLC",much lower and poorly defined for quantification
same,urine radioactivity fraction as radiometabolite-X ([64Cu]Cu-cyclam-GF),"[3]; urine 0–6 h p.i., TLC",69.1 ± 4.5%
same,reduction of kidney radioactivity level,[7],74.4%
same,reduction of liver radioactivity level,[7],34%
"O=C(CN1CCCNCCNCCCNCC1)NCC(=O)N[C@@H](Cc1ccccc1)C(=O)N[C@@H](CCCCNC(=O)c1ccccc1)C(=O)O [[^64Cu]Cu-cyclam-GFK(Bz), [^64Cu]Cu-cyclam-GFK(benzoyl [Bz])-OH, metal not drawn]",release of [64Cu]Cu-cyclam-G upon incubation with RBBMVs,[6],released the expected fragment
same,release of radiometabolite-X (% of the radioactivity),[6],43.7%
same,urinary radioactivity with tR consistent with [64Cu]Cu-cyclam-G,[3]; mouse urine 10 min p.i.,5.9%
same,urinary radioactivity with tR consistent with [64Cu]Cu-cyclam-G,[3]; mouse urine 2 h p.i.,13.8%
same,urine radioactivity fraction as [64Cu]Cu-cyclam-G,"[3]; urine 0–6 h p.i., TLC",27.2 ± 2.5%
same,urine radioactivity fraction as intact compound,"[3]; urine 0–6 h p.i., TLC",67.6 ± 3.4%
CC(C)C[C@H](NP(=O)(O)O[C@@H]1O[C@@H](C)[C@H](O)[C@@H](O)[C@H]1O)C(=O)N[C@@H](Cc1c[nH]c2ccccc12)C(=O)O [phosphoramidon],inhibition of release of [64Cu]Cu-cyclam-G from [64Cu]Cu-cyclam-GFK(Bz) (pilot),[1],almost completely inhibited
same,inhibition of release of [64Cu]Cu-cyclam-G from [64Cu]Cu-cyclam-GFK(Bz),[1],nearly completely inhibited
same,inhibition of release of radiometabolite-X from [64Cu]Cu-cyclam-GFK(Bz),[1],barely inhibited
NC(N)=NCCSCC(CS)C(=O)O (stereo not drawn) [mergetpa],inhibition of release of [64Cu]Cu-cyclam-G from [64Cu]Cu-cyclam-GFK(Bz),[1],not inhibited
same,inhibition of release of radiometabolite-X from [64Cu]Cu-cyclam-GFK(Bz),[1],partially inhibited
"C[C@@H]1NC(=O)[C@H](CCCCNC(=O)CO/N=C/C(=O)NCCCC[C@@H]2NC(=O)[C@@H](Cc3ccccc3)NC(=O)[C@H](CC(=O)O)NC(=O)CNC(=O)[C@H](CCCNC(=N)N)NC2=O)NC(=O)CNC(=O)[C@@H]2CCCN2C(=O)[C@H](CCCCNC(=O)CO/N=C/C(=O)NCCCC[C@@H]2NC(=O)[C@@H](Cc3ccccc3)NC(=O)[C@H](CC(=O)O)NC(=O)CNC(=O)[C@H](CCCNC(=N)N)NC2=O)NC(=O)[C@H](CCCCNC(=O)CN2CCCNCCNCCCNCC2)NC(=O)[C@H](CCCCNC(=O)CO/N=C/C(=O)NCCCC[C@@H]2NC(=O)[C@@H](Cc3ccccc3)NC(=O)[C@H](CC(=O)O)NC(=O)CNC(=O)[C@H](CCCNC(=N)N)NC2=O)NC(=O)CNC(=O)[C@@H]2CCCN2C(=O)[C@H](CCCCNC(=O)CO/N=C/C(=O)NCCCC[C@@H]2NC(=O)[C@@H](Cc3ccccc3)NC(=O)[C@H](CC(=O)O)NC(=O)CNC(=O)[C@H](CCCNC(=N)N)NC2=O)NC1=O [[^64Cu]Cu-cyclam-RaftRGD, [^64Cu]Cu-cyclam-RAFT-c(-RGDfK-)4, metal not drawn]",rate of reduction in renal radioactivity level (PET),[5],43.0 ± 4.5%
same,reduction of kidney radioactivity level,[7],22.8%
same,reduction of liver radioactivity level,[7],27.0%
